PubChem BioAssay AID720578 (The Scripps Research Institute Molecular Screening Center, 2013)
The source made the active and inactive calls. The rule behind the calls is not given here.

These molecules were tested against Crimean-Congo hemorrhagic fever virus L protein viral ovarian tumor (vOTU) protease domain (assay: CCHFV vOTU protease inhibitor potency, dose response, biochemical, fluorescence, Pep-AMC substrate (AID 720578)). Conditions: recombinant CCHFV vOTU, Pep-AMC fluorescence cleavage.

Structure (SMILES)	IC50
Cc1cccc(NC(=O)c2sc3nc4c(c(-c5cccs5)c3c2N)CN(C)CC4)c1	inactive
CC(C)=CCC1=C(OCC(=O)O)C(=O)c2ccccc2C1=O	6.79 µM
O=c1[nH]c(Nc2ccccc2)cc2cc(Br)ccc12	1 µM
O=C(O)CSc1cc(NS(=O)(=O)c2cccc([N+](=O)[O-])c2)c2ccccc2c1O	2.44 µM
CCOc1ccc(NC(=S)Nc2ccc3nsnc3c2)cc1	7.51 µM
COc1cc(NC(C)CCCN)c2ncccc2c1 (stereo not given)	inactive
CCC(CNc1cc(OC)cc2cccnc12)NC1CCCCC1 (stereo not given)	6.32 µM
CCOCCCNC1=C(Cl)C(=O)c2ccccc2C1=O	inactive
Cn1c2ccccc2c2cc(/C=N/NC(=O)c3cc(O)ccc3O)ccc21	9.12 µM
Cn1c(=O)c2c(-c3ccccc3)n(-c3ccc(N)cc3)cc2n(C)c1=O	4.53 µM
CCOC(=O)/C=C(\C)Sc1cc(O)c2ccccc2c1O	1.57 µM
CN(C)c1cccc2c1c(NS(=O)(=O)c1cn(C)cn1)nn2C	inactive
O=C1C=C(N2CCOCC2)c2ccccc2C1=O	4.21 µM
O=[N+]([O-])c1cc(O)c2ncccc2c1	inactive
Nc1cc2c(cc1Br)[nH]c(=O)c1ccccc12	3.2 µM
CC(C)C[C@H](NC(=O)c1[nH]cnc1C(=O)N[C@@H](C)C(=O)OC(C)(C)C)C(=O)OC(C)(C)C	> 115 µM (inactive)
CC(=O)c1ccc(NC2=C(N3CCOCC3)C(=O)c3ccccc3C2=O)cc1	inactive
NC(=S)N=Nc1c(O)cc(O)c2[nH]c(=O)ccc12	9.78 µM
Nc1ccc(N2CCCCC2)c2nonc12	inactive
CC1COCC(C)N1C1=C(Cl)C(=O)c2ccccc2C1=O (stereo not given)	5.07 µM
O=C1C(SCCO)=C(SCCO)C(=O)c2ccccc21	2.15 µM
O=C(NC(=S)Nc1ccccc1N1CCCC1)c1ccc(F)cc1	inactive

Structure (SMILES)	IC50
Cc1ccc(S(=O)(=O)/N=C2\C=C(Nc3cccc(C(=O)O)c3)C(=O)c3ccccc32)cc1	0.771 µM
Cc1ccccc1-c1cc2c(nn1)-c1ccccc1C2=O	0.457 µM
CCOC(=O)c1cc2c(=Cc3ccc(N(C)C)cc3)c3ccccc3n2[n+]1C	7.38 µM
COc1ccccc1N=Nc1c(O)[nH]c(=S)[nH]c1=O	inactive
CCOC(=O)N=Nc1c2ccccc2c2nc3no[nH]c3nc12	2.35 µM
CCCCCCCCCCCCCCCCn1cc[n+](C)c1	inactive
Oc1c(C=Nc2cccc3nsnc23)ccc2ccccc12	inactive
COc1ccc(/C=N/NC(=O)c2nn(-c3ccccc3)c(=O)c3c(N)scc23)cc1	8.43 µM
CC(=O)N(/N=C1\Sc2ccccc2C1=O)c1cccc(C)c1	inactive
COc1ccc(CNC(=O)c2c(C)oc3c2C(=O)c2ccccc2C3=O)cc1	8.2 µM
O=C(COC(=O)c1ccc([N+](=O)[O-])s1)Nc1ncc(C(F)(F)F)cc1Cl	8.84 µM
CCCCn1c(NS(=O)(=O)c2ccccc2)c(C(=O)OCC)c2nc3ccccc3nc21	> 115 µM (inactive)
O=C(COC(=O)c1ccc([N+](=O)[O-])s1)Nc1ccc(Cl)cn1	8.32 µM
CCC(C)n1c(NC(=O)c2ccccc2)c(C#N)c2nc3ccccc3nc21 (stereo not given)	8.97 µM
O=C1C=C(Nc2ccccc2C(=O)O)c2ccccc2C1=O	3.59 µM
C[n+]1c2ccccc2nc2ccc(NCCO)cc21	5.96 µM
Cc1ccc(Cl)cc1NC1=C/C(=N\S(=O)(=O)c2cccs2)c2ccccc2C1=O	0.787 µM
Oc1ccccc1CNc1cccc2cccnc12	9.96 µM
O=C1C=C(O)c2[nH]c(=O)ccc2C1=O	4.26 µM
C=CCN1C(=O)/C(=C/c2ccc(OC(C)=O)c(OCC)c2[N+](=O)[O-])SC1=S	7.63 µM
O=C1Nc2ccc([N+](=O)[O-])cc2C1=Nc1cccc(CO)c1	8.78 µM
CCCCCCCCCCOC(=O)Cn1c(COc2ccc(Cl)cc2)[n+](C)c2ccccc21	inactive

Structure (SMILES)	IC50
CN(C)c1ccc(C=c2c3cc(O)ccc3n3c2cc(-c2ccccc2)[n+]3C)cc1	inactive
CC[n+]1c(-c2ccccc2)c2cc(N)ccc2c2ccc(N)cc21	1.56 µM
Cc1cc(=O)c2c(o1)C(=O)c1occc1C2=O	6.05 µM
C[n+]1c(-c2ccccc2)cc2c(=Cc3ccc([N+](=O)[O-])cc3)c3ccccc3n21	inactive
O=C(O)CCCNc1cc(N2CCN(C(=O)c3ccco3)CC2)c2noc3c2c1C(=O)c1ccccc1-3	5.72 µM
O=C(COC(=O)c1ccc([N+](=O)[O-])s1)NCc1ccc(F)cc1	8.08 µM
O=C1C(=NO)CCc2ccccc21	3.36 µM
CC1(OC(=O)C2CCCC2)C(=O)C=C2C=C(c3ccsc3)N(CCCCO)C=C2C1=O (stereo not given)	inactive
O=C(O)c1cccc(NC2=C(N3CCOCC3)C(=O)c3ccccc3C2=O)c1	inactive
CCOC(=O)c1c2c(n(Cc3ccccc3)c1C)C(=O)C(=O)c1ccccc1-2	2.16 µM
O=C(N/N=C1\C/C(=N\NC(=O)c2ccncc2)c2ccccc21)c1ccncc1	0.701 µM
CC1OC(CC(=O)O)CC2=C1C(=O)c1c(O)cccc1C2=O (stereo not given)	3.82 µM
C[n+]1c(-c2ccccc2)cc2c(=Cc3ccccc3)c3ccccc3n21	4.95 µM
CCCCCCCCN1C(=O)[C@@H](CC(=O)NCCCOCCCC)C[C@@]2(C(=O)OC)C1=C[C@H](C(C)C)O[C@@H]2C1CC1	inactive
CCOC(=O)C1CCN(C(=O)c2c(C)oc3c2C(=O)c2ccccc2C3=O)CC1	inactive
CCOc1ccc2noc3c2c1C(=O)c1ccccc1-3	inactive
CN1/C(=C\C=C2C(=O)NC(=O)NC2=O)C(C)(C)c2ccccc21	inactive
Cn1nc(-c2ccccn2)nc2c(=O)n(C)c(=O)nc1-2	0.366 µM
Cc1ccc(N2C(=O)[C@@H]3[C@H](C2=O)C2c4ccccc4C=CN2[C@@H]3C(=O)c2ccco2)cc1 (stereo not given in full)	4.21 µM
O=c1[nH]c(=S)[nH]c2c1C(c1ccc(Br)cc1)c1c([nH]c(=S)[nH]c1=O)O2	inactive
Cc1c(Cl)cnc(NC(=O)COC(=O)c2ccc([N+](=O)[O-])s2)c1Cl	7.08 µM
CCCNC1=C(N(C(C)=O)c2cccc(F)c2)C(=O)c2ccccc2C1=O	inactive

Structure (SMILES)	IC50
COc1ccc(Cc2nccc3cc(OC)c(OC)cc23)cc1OC	inactive
COC(=O)c1nc(-c2ccc3c(n2)C(=O)C(N)=C(OC)C3=O)c(N)c(-c2ccc(OC)c(OC)c2O)c1C	0.931 µM
O=C(O)CSc1cc(NS(=O)(=O)c2ccc(Br)cc2)c2ccccc2c1O	4.45 µM
O=C1NC(c2ccc(-c3ccccc3[N+](=O)[O-])o2)C(C(=O)c2ccc(Cl)cc2)C(O)(C(F)(F)F)N1 (stereo not given)	inactive
COC(CNC(=O)c1ccc2c3c(onc13)-c1ccccc1C2=O)OC	3.5 µM
O=C(NC(=S)Nc1ccccc1N1CCCC1)c1ccccc1Br	inactive
CC(=O)N(C1=C(Cl)C(=O)c2ccccc2C1=O)C1CCCCC1	3.54 µM
COc1cc2c(cc1OC)-c1c(OC)c(OC)cc3c1[C@H](C2)N(C)CC3	7 µM
COc1cc(CCNC2=CC(=O)c3ncccc3C2=O)ccc1O	5.25 µM
CN=c1sc2c(n1C)C(=O)c1ccccc1C2=O	1.78 µM
Cc1ccc(NC2=C/C(=N/S(=O)(=O)c3cccs3)c3ccccc3C2=O)cc1	0.405 µM
O=C1C=C(Nc2ccccc2)c2ccccc2C1=O	6.87 µM
Clc1ccc(C2=CSC3=Nc4cccc5cccc(c45)N23)cc1	inactive
COc1cc2c(cc1O)[C@@H]1Cc3ccc(OC)c(O)c3CN1CC2	7.49 µM
O=C(NC(=S)Nc1ccccc1N1CCCC1)c1cccs1	inactive
NC1=C(Br)C(=O)c2ccccc2C1=O	4.48 µM
COc1ccc(S(=O)(=O)/N=C2\C=C(Nc3ccc(O)cc3)C(=O)c3ccccc32)cc1	0.375 µM
O=C1Cc2ccccc2C(=O)N1CCc1ccccc1	1.14 µM
CN(C)c1ccc2nc3ccc(=O)cc-3sc2c1	inactive
CN(C)c1ncc(C2=C(Cl)C(=O)C(N3CCCC3)=C(Cl)C2=O)s1	inactive
O=C1C=C(NCc2ccccc2)c2ccccc2C1=O	6.23 µM
O=C(O)c1cc(O)c2c(c1)[C@H]([C@H]1c3cc(C(=O)O)cc(O)c3C(=O)c3c(O[C@@H]4O[C@H](CO)[C@@H](O)[C@H](O)[C@H]4O)cccc31)c1cccc(OC3O[C@H](CO)[C@@H](O)[C@H](O)[C@H]3O)c1C2=O (stereo not given in full)	6.47 µM

Structure (SMILES)	IC50
COc1ccc(-n2c3nc4ccccc4nc3c3c(=N)oc(C)nc32)cc1	inactive
O=C(NCCCO)c1ccc2nc(-c3ccco3)c(-c3ccco3)nc2c1	9.45 µM
O=C(O)c1ccc(NC2=C/C(=N/S(=O)(=O)c3cccs3)c3ccccc3C2=O)cc1	0.384 µM
O=C1C(Nc2ccccc2)=C(N2CCCCC2)C(=O)c2ccccc21	4.54 µM
O=C(COC(=O)c1ccc([N+](=O)[O-])s1)Nc1ccc(F)cc1	7.79 µM
CC1(C)C=C2C(=NN(c3ccccc3)C(N)=C2C#N)CO1	1.83 µM
O=C(c1ccco1)[C@@H]1[C@@H]2C(=O)N(c3ccc(Br)cc3)C(=O)[C@@H]2C2c3ccccc3C=CN21 (stereo not given in full)	5.26 µM
Cc1cc2c(cc1C)C(=O)C(Br)=C(N)C2=O	5.56 µM
C=CCN1C=CC(=C/C=C(/C#N)C(=O)OCC)C=C1	inactive
CNc1ccc2nc3ccccc3[n+](C)c2c1	inactive
Oc1c(N=Nc2nn[nH]n2)ccc2ccccc12	5.11 µM
COc1ccccc1Nc1cc2cc(Br)ccc2c(=O)[nH]1	1.05 µM
Cc1ccc(S(=O)(=O)/N=C2\C=C(Nc3cccc(C(=O)O)c3)C(=O)c3ccccc32)c(C)c1	0.973 µM
CCCCCCCCCCCCN1[C@@H](CC(=O)O)c2cc(F)ccc2S1(=O)=O	inactive
O=C1C(N2CCOCC2)=C(n2nnc3ccccc32)C(=O)c2ccccc21	2.69 µM
COC1=C(N)C(=O)c2nc(C)ccc2C1=O	1.37 µM
O=C1C(Nc2cccc(O)c2)=C(N2CCCCC2)C(=O)c2ccccc21	3.6 µM
CC(=O)N(C)c1ccc(N=Cc2cc3c(cc2[N+](=O)[O-])OCO3)cc1	inactive
COC1=C(Br)C(=O)c2nc(C)ccc2C1=O	9.43 µM
CN(C)S(=O)(=O)c1cccc(NC(=S)Nc2cccc3cnccc23)c1	inactive
O=C(NC1=CC(=O)c2ccccc2C1=O)c1ccccc1	3.85 µM
NC1=C(Br)C(=O)c2ncccc2C1=O	0.435 µM
